Experimental data reported in US11707439B2, “Parenteral treatments involving aminoadamantane derivatives” (Shinkei Therapeutics, Inc., priority 2019, dated 2023).
Structures can show the parent of a compound that is named as a salt. Where two headings read alike, the source gives them in different places.

How the values were obtained:
[1] = Osmolality of amantadine hydrochloride solution in sterile water for injection; format: physicochemical
From the text: Examples of tonicity agents that can be used in the compositions of the present invention include, but are not limited to, sodium chloride, mannitol, dextrose, potassium chloride, sodium chloride and mixtures thereof. The tonicity agents may be present in an amount so as to provide osmolality of from about 250 mOsm/kg to about 350 mOsm/kg, particularly from 280 mOsm/kg to 320 mOsm/kg.

fluid percussion injury = details: chronic amantadine-pumping infusion, cited from earlier work
[2] = Pharmacokinetic study in 10 healthy subjects: intravenous infusion vs oral capsules; format: in vivo, human; details: for Tmax / Cmax / half-life: fasted healthy subjects
[3] = test system: persistent vegetative state; details: single patient; 100 mg/day intravenously increased to 300 mg/day, then enteral; cited from earlier work
[4] = postmortem brain tissue of 21 patients previously treated with amantadine sulfate; cited from earlier work
[5] = continuous subcutaneous administration, Parkinson's disease patients; cited from earlier work

For `NC12CC3CC(CC(C3)C1)C2` [amantadine hydrochloride], which Osmolality ([1]; 10 mg/ml solution in sterile water for injection) is on record?
The Osmolality was 97 mOsm/kg.

What about the Osmolality ([1]; 20 mg/ml solution in sterile water for injection) of the same molecule?
Its Osmolality is 192 mOsm/kg.

And the Osmolality ([1]; 30 mg/ml solution in sterile water for injection)?
The Osmolality was 283 mOsm/kg.

What about the Osmolality ([1]; 40 mg/ml solution in sterile water for injection) of the same molecule?
Its Osmolality is 369 mOsm/kg.

What about the Osmolality ([1]; 50 mg/ml solution in sterile water for injection) of the same molecule?
Its Osmolality is 509 mOsm/kg.

What about the Osmolality ([1]; 75 mg/ml solution in sterile water for injection) of the same molecule?
The Osmolality was 671 mOsm/kg.

What does the source list for `NC12CC3CC(CC(C3)C1)C2` [amantadine, 1-amantanamine]?
dopamine-release deficits (fluid percussion injury; rats after fluid percussion injury): reversed; behavioral impairment after fluid percussion injuries (fluid percussion injury; rats): ameliorated; Peak and total plasma exposures following the infusion, lower than reference oral dose ([2]; 50 mg intravenous infusion vs 200 mg oral dose): approximately 5 fold; Tmax ([2]; human, plasma, iv, 50 mg, Treatment A: single 50 mg dose, intravenous infusion over 180 minutes, plasma, read-out: mean Tmax): 4.1 h; Tmax ([2]; human, plasma, iv, 50 mg, Treatment A: single 50 mg dose, intravenous infusion over 180 minutes, plasma, read-out: median Tmax): 4 h; Tmax ([2]; human, plasma, po, 200 mg, Treatment B: single 200 mg oral dose as 2×100 mg capsules, plasma, read-out: mean Tmax): 3.6 h; Tmax ([2]; human, plasma, po, 200 mg, Treatment B: single 200 mg oral dose as 2×100 mg capsules, plasma, read-out: median Tmax): 2.8 h; bioavailability ([2]; human, plasma, 200 mg oral, from LSGM A/B ratio of CLIV to CLIV/F, read-out: bioavailability of the oral capsule): 122%; Cmax ([2]; human, Treatment A: single 50 mg dose, intravenous infusion over 180 minutes, plasma): 142 ng/mL; half-life ([2]; human, Treatment A: single 50 mg dose, intravenous infusion over 180 minutes, plasma, read-out: mean apparent first-order elimination half-life (T1/2) (converted)): 14 h; Cmax ([2]; human, Treatment B: single 200 mg oral dose as 2×100 mg capsules, plasma): 643 ng/mL; half-life ([2]; human, Treatment B: single 200 mg oral dose as 2×100 mg capsules, plasma, read-out: mean T1/2 (converted)): 14.6 h; clinical outcome in persistent vegetative state [3]: stunning awakening of the patient, fully orientated within days; elimination half-life from brain tissue [4]: much longer than from blood

Which “eosinophilia and orthostatic hypotension, share of PD patients” value [5] does the source give for `CN1CCc2cccc3c2[C@H]1Cc1ccc(O)c(O)c1-3` [apomorphine] here?
Its value is “less than 5%”.
